Results on 21 compounds are retold here after patent US11919901B2 (Syndax Pharmaceuticals, Inc., priority 2021, dated 2024).

pIC50: −log10 of the molar value.

The assay relates to MV4-11 cells. Kind of assay: Cell proliferation assay MV4;11 (CellTiter-Glo, 72 hours). The assay is classed as cell-based. The note with it: Homo sapiens; MV4;11 leukemia cell line, 72 hours; read-out: MV4; 11 IC50. In short, it runs like this: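 Luminescent CellTiter-Glo readout after 72 h culture, 37 °C, 5% CO2, expressed relative to vehicle-treated wells, with maximal inhibition taken at the highest dose. MLL-rearranged MV4-11 leukemia cells; final compound range 0.632 to 2000 nM in eight steps.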
For orientation: In ATP-based viability assays light output follows the ATP content of the culture.

As for `CCN(C)S(=O)(=O)N[C@@H]1CC[C@@H](CN2CCC3(CC2)CN(c2ncncc2Oc2ccc(F)cc2C(=O)N(C(C)C)[C@H]2CCOC2)C3)OC1` [Example 179, 2-((4-(7-(((2S,5R)-5-((N-Ethyl-N-methylsulfamoyl)amino)tetrahydro-2H-pyran-2-yl)methyl)-2,7-diazaspiro[3.5]nonan-2-yl)pyrimidin-5-yl)oxy)-5-fluoro-N-isopropyl-N-((S)-tetrahydrofuran-3-yl)benzamide], the pIC50 is over 7.00.
For `CC(C)N(CC(F)(F)F)C(=O)c1cc(F)ccc1Oc1nncnc1N1CC2(CCN(C[C@@H]3CC[C@@H](NS(=O)(=O)C4CC4)CO3)CC2)C1` [Example 191, 2-((5-(7-(((2S,5R)-5-(Cyclopropanesulfonamido)tetrahydro-2H-pyran-2-yl)methyl)-2,7-diazaspiro[3.5]nonan-2-yl)-1,2,4-triazin-6-yl)oxy)-5-fluoro-N-isopropyl-N-(2,2,2-trifluoroethyl)benzamide] the value was over 7.00; for `CCNS(=O)(=O)N[C@@H]1CC[C@@H](CN2CCC3(CC2)CN(c2ncncc2Oc2ccc(F)cc2C(=O)N(C(C)C)[C@H]2CCOC2)C3)OC1` [Example 180, 2-((4-(7-(((2S,5R)-5-((N-Ethylsulfamoyl)amino)tetrahydro-2H-pyran-2-yl)methyl)-2,7-diazaspiro[3.5]nonan-2-yl)pyrimidin-5-yl)oxy)-5-fluoro-N-isopropyl-N-((S)-tetrahydrofuran-3-yl)benzamide], over 7.00; for `CCS(=O)(=O)N[C@@H]1CC[C@@H](CN2CCC3(CC2)CN(c2ncnnc2Oc2ccc(F)cc2C(=O)N(C(C)C)C(C)C)C3)OC1` [Example 195, 2-((5-(7-(((2S,5R)-5-(Ethylsulfonamido)tetrahydro-2H-pyran-2-yl)methyl)-2,7-diazaspiro[3.5]nonan-2-yl)-1,2,4-triazin-6-yl)oxy)-5-fluoro-N,N-diisopropylbenzamide], over 7.00.
For `CNS(=O)(=O)N[C@H]1CC[C@H](CN2CCC3(CC2)CN(c2ncncc2Oc2ccc(F)cc2C(=O)N(C(C)C)C2CC2)C3)OC1` (stereo in doubt) [Example 146, N-Cyclopropyl-5-fluoro-N-isopropyl-2-((4-(7-(((2R,5S)-5-((N-methylsulfamoyl)amino)tetrahydro-2H-pyran-2-yl)methyl)-2,7-diazaspiro[3.5]nonan-2-yl)pyrimidin-5-yl)oxy)benzamide], the pIC50 is over 7.00.
To `C[C@@H]1COC[C@H](C)N1C(=O)c1cc(F)ccc1Oc1cncnc1N1CC2(CCN(C[C@@H]3CC[C@@H](NS(=O)(=O)C4CC4)CO3)CC2)C1` [Example 26, N-((3R,6S)-6-((2-(5-(2-((3S,5R)-3,5-Dimethylmorpholine-4-carbonyl)-4-fluorophenoxy)pyrimidin-4-yl)-2,7-diazaspiro[3.5]nonan-7-yl)methyl)tetrahydro-2H-pyran-3-yl)cyclopropanesulfonamide] belongs over 7.00.
With `CCN(CC)S(=O)(=O)N[C@@H]1CC[C@@H](CN2CCC3(CC2)CN(c2ncncc2Oc2ccc(F)cc2C(=O)N(C(C)C)C2CC(F)(F)C2)C3)OC1` [Example 114, 2-((4-(7-(((2S,5R)-5-((N,N-Diethylsulfamoyl)amino)tetrahydro-2H-pyran-2-yl)methyl)-2,7-diazaspiro[3.5]nonan-2-yl)pyrimidin-5-yl)oxy)-N-(3,3-difluorocyclobutyl)-5-fluoro-N-isopropylbenzamide], the pIC50 was over 7.00.
As for `CC(C)N(C(=O)c1cc(F)ccc1Oc1cncnc1N1CC2(CCN(C[C@@H]3CC[C@@H](NS(=O)(=O)N4CC5(COC5)C4)CO3)CC2)C1)C(C)C` [Example 222, 2-((4-(7-(((2S,5R)-5-(2-Oxa-6-azaspiro[3.3]heptane-6-sulfonamido)tetrahydro-2H-pyran-2-yl)methyl)-2,7-diazaspiro[3.5]nonan-2-yl)pyrimidin-5-yl)oxy)-5-fluoro-N,N-diisopropylbenzamide], the pIC50 was over 7.00.
For `CC(C)N(C(=O)c1cc(F)ccc1Oc1cncnc1N1CC2(CCN(C[C@@H]3CC[C@@H](NS(=O)(=O)C4CC4)CO3)CC2)C1)C1COC1` [Example 247, 2-((4-(7-(((2S,5R)-5-(Cyclopropanesulfonamido)tetrahydro-2H-pyran-2-yl)methyl)-2,7-diazaspiro[3.5]nonan-2-yl)pyrimidin-5-yl)oxy)-5-fluoro-N-isopropyl-N-(oxetan-3-yl)benzamide] the value was over 7.00; for `CCNC(=O)N[C@@H]1CC[C@@H](CN2CCC3(CC2)CN(c2ncncc2Oc2ccc(F)cc2C(=O)N(CC)C(C)C)C3)OC1` [Example 39, N-Ethyl-2-((4-(7-(((2S,5R)-5-(3-ethylureido)tetrahydro-2H-pyran-2-yl)methyl)-2,7-diazaspiro[3.5]nonan-2-yl)pyrimidin-5-yl)oxy)-5-fluoro-N-isopropylbenzamide], over 7.00.
For `CCNS(=O)(=O)N[C@@H]1CC[C@@H](CN2CCC3(CC2)CN(c2ncncc2Oc2ccc(F)cc2C(=O)N(CC)C(C)C)C3)OC1` [Example 141, N-Ethyl-2-((4-(7-(((2S,5R)-5-((N-ethylsulfamoyl)amino)tetrahydro-2H-pyran-2-yl)methyl)-2,7-diazaspiro[3.5]nonan-2-yl)pyrimidin-5-yl)oxy)-5-fluoro-N-isopropylbenzamide] the value was over 7.00; for `CCN(C(=O)c1cc(F)ccc1Oc1cncnc1N1CC2(CCN(C[C@@H]3CC[C@@H](NS(=O)(=O)c4ccccn4)CO3)CC2)C1)C(C)C` [Example 58, N-ethyl-5-fluoro-N-isopropyl-2-((4-(7-(((2S,5R)-5-(pyridine-2-sulfonamido)tetrahydro-2H-pyran-2-yl)methyl)-2,7-diazaspiro[3.5]nonan-2-yl)pyrimidin-5-yl)oxy)benzamide], over 7.00.
To `C[C@@H]1COC[C@H](C)N1C(=O)c1cc(F)ccc1Oc1cncnc1N1CC2(CCN(C[C@@H]3CC[C@@H](NS(=O)(=O)C4COC4)CO3)CC2)C1` [Example 27, N-((3R,6S)-6-((2-(5-(2-((3S,5R)-3,5-Dimethylmorpholine-4-carbonyl)-4-fluorophenoxy)pyrimidin-4-yl)-2,7-diazaspiro[3.5]nonan-7-yl)methyl)tetrahydro-2H-pyran-3-yl)oxetane-3-sulfonamide] belongs 6.00 to 7.00; to `CCN(C(=O)c1cc(F)ccc1Oc1cncnc1N1CC2(CCN(C[C@@H]3CC[C@@H](NS(=O)(=O)CC4CC4)CO3)CC2)C1)C(C)C` [Example 7, 2-((4-(7-(((2S,5R)-5-((Cyclopropylmethyl)sulfonamido)tetrahydro-2H-pyran-2-yl)methyl)-2,7-diazaspiro[3.5]nonan-2-yl)pyrimidin-5-yl)oxy)-N-ethyl-5-fluoro-N-isopropylbenzamide], over 7.00.
As for `CCS(=O)(=O)N[C@@H]1CC[C@@H](CN2CCC3(CC2)CN(c2ncncc2Oc2ccc(F)cc2C(=O)N(C(C)C)C2CCOCC2)C3)OC1` [Example 250, 2-((4-(7-(((2S,5R)-5-(Ethylsulfonamido)tetrahydro-2H-pyran-2-yl)methyl)-2,7-diazaspiro[3.5]nonan-2-yl)pyrimidin-5-yl)oxy)-5-fluoro-N-isopropyl-N-(tetrahydro-2H-pyran-4-yl)benzamide], the pIC50 is over 7.00.
To `CC(C)N(C(=O)c1cc(F)ccc1Oc1cncnc1N1CC2(CCN(C[C@@H]3CC[C@@H](NS(=O)(=O)N(C)C)CO3)CC2)C1)C1CC(F)(F)C1` [Example 113, N-(3,3-Difluorocyclobutyl)-2-((4-(7-(((2S,5R)-5-((N,N-dimethylsulfamoyl)amino)tetrahydro-2H-pyran-2-yl)methyl)-2,7-diazaspiro[3.5]nonan-2-yl)pyrimidin-5-yl)oxy)-5-fluoro-N-isopropylbenzamide] belongs over 7.00; to `CCNS(=O)(=O)N[C@@H]1CC[C@@H](CN2CCC3(CC2)CN(c2ncncc2Oc2ccc(F)cc2C(=O)N(C(C)C)C2CC(F)(F)C2)C3)OC1` [Example 155, N-(3,3-Difluorocyclobutyl)-2-((4-(7-(((2S,5R)-5-((N-ethylsulfamoyl)amino)tetrahydro-2H-pyran-2-yl)methyl)-2,7-diazaspiro[3.5]nonan-2-yl)pyrimidin-5-yl)oxy)-5-fluoro-N-isopropylbenzamide], over 7.00; to `CC(C)N(CC(F)F)C(=O)c1cc(F)ccc1Oc1cncnc1N1CC2(CCN(C[C@@H]3CC[C@@H](NS(=O)(=O)C4CC4)CO3)CC2)C1` [Example 47, 2-((4-(7-(((2S,5R)-5-(Cyclopropanesulfonamido)tetrahydro-2H-pyran-2-yl)methyl)-2,7-diazaspiro[3.5]nonan-2-yl)pyrimidin-5-yl)oxy)-N-(2,2-difluoroethyl)-5-fluoro-N-isopropylbenzamide], over 7.00.
To `CC(C)N(C(=O)c1cc(F)ccc1Oc1cncnc1N1CC2(CCN(C[C@@H]3CC[C@@H](NS(=O)(=O)N4CCC4)CO3)CC2)C1)[C@@H]1CCOC1` [Example 168, 2-((4-(7-(((2S,5R)-5-(Azetidine-1-sulfonamido)tetrahydro-2H-pyran-2-yl)methyl)-2,7-diazaspiro[3.5]nonan-2-yl)pyrimidin-5-yl)oxy)-5-fluoro-N-isopropyl-N-((R)-tetrahydrofuran-3-yl)benzamide] belongs over 7.00.
For `CNS(=O)(=O)N[C@@H]1CC[C@@H](CN2CCC3(CC2)CN(c2ncncc2Oc2ccc(F)cc2C(=O)N(C(C)C)C(C)C)C3)OC1` [Example 143, 5-Fluoro-N,N-diisopropyl-2-((4-(7-(((2S,5R)-5-((N-methylsulfamoyl)amino)tetrahydro-2H-pyran-2-yl)methyl)-2,7-diazaspiro[3.5]nonan-2-yl)pyrimidin-5-yl)oxy)benzamide] the value was over 7.00; for `CCN(C(=O)c1cc(F)ccc1Oc1cncnc1N1CC2(CCN(C[C@@H]3CC[C@@H](NS(=O)(=O)N4CCC4)CO3)CC2)C1)C(C)C` [Example 69, 2-((4-(7-(((2S,5R)-5-(Azetidine-1-sulfonamido)tetrahydro-2H-pyran-2-yl)methyl)-2,7-diazaspiro[3.5]nonan-2-yl)pyrimidin-5-yl)oxy)-N-ethyl-5-fluoro-N-isopropylbenzamide], over 7.00.
